Read-outs that look alike come from different tables or passages of the source. Where only a bound is given, the exact number is not on record here.

We go through twelve compounds from patent publication US4760136A, “Chartreusin derivatives and salts thereof” (Ishihara Sangyo Kaisha, Ltd., priority 1984, dated 1988).

Data set [1] can be described thus: Acute toxicity, intravenous (once), ddY mice. The class given is in vivo. The following applies: mouse, in vivo, formulated per Preparation Example. The source says:
In Table 7 are shown acute toxicity values (LD50, mg/kg) in ddY mice in the case of intravenously administering (once) each of the compounds of this invention in the form of preparations shown in the Preparation Examples shown in Table 7.

For the next data set, the system named is P-388 leukemia cells. The experiment in a line: Antitumor activity: P-388 leukemia cells inoculated intraperitoneally, drug administered intravenously, BDF1 mice. The class given is in vivo. Particulars: Mus musculus, P388, iv, read-out: T/C (%) of MST; for response vs control in vivo at 40 mg/kg: dose c: 40 mg/kg × 3, i.v. on days 1, 5 and 9; for response vs control in vivo at 20 mg/kg: dose b: 20 mg/kg × 3, i.v. on days 1, 5 and 9; for response vs control in vivo at 60 mg/kg: dose e: 60 mg/kg × 3, i.v. on days 1, 5 and 9. In short, it runs like this:
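Drug dosing was intravenous on the first, fifth and ninth days after intraperitoneal inoculation of P-388 leukemia cells (1×10^6 per mouse) into BDF1 mice. Vehicles were physiological saline alone, or saline with small amounts of sodium carboxymethyl cellulose or Tween-80.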

Setting [2] is: dose f: 80 mg/kg × 3, i.v. on days 1, 5 and 9, BDF1 mice, P-388 i.p.

The LD50 is the dose expected to kill half of the subjects tested. High values mean a less toxic substance, low ones a more toxic substance. As for `CCOCCC(=O)Oc1c2cccc(O[C@@H]3O[C@H](C)[C@@H]4OC(c5cccc(Cl)c5)O[C@@H]4[C@H]3O[C@H]3O[C@H](C)[C@H](O)[C@H](OC)[C@H]3O)c2c2oc(=O)c3c(C)ccc4oc(=O)c1c2c43` (stereo partly drawn) [Compound No. 188], in data set [1] (iv), the LD50 was at least 60 mg/kg. In addition, in the data set on P-388 leukemia cells (BDF1 mice, P-388 i.p.), the response vs control in vivo at 40 mg/kg was found to be 193%.

As for `COC1C(O)C(C)OC(OC2C(Oc3cccc4c(OC(=O)C(C)CNC(=O)CN(C)C)c5c(=O)oc6ccc(C)c7c(=O)oc(c34)c5c67)OC(C)C3OC(c4ccccc4)OC32)C1O` (stereo not drawn) [Compound No. 4], the LD50 in data set [1] (iv) was at least 40 mg/kg. In the data set with P-388 leukemia cells (BDF1 mice, P-388 i.p.), the response vs control in vivo at 20 mg/kg stood at 184% and the response vs control in vivo at 40 mg/kg is 216%.

`COc1ccc(C(=O)Oc2c3cccc(O[C@@H]4O[C@H](C)[C@@H]5OC(C)(C)O[C@@H]5[C@H]4O[C@H]4O[C@H](C)[C@H](O)[C@H](OC)[C@H]4O)c3c3oc(=O)c4c(C)ccc5oc(=O)c2c3c54)cc1` [compound 208] displayed an LD50 in data set [1] (iv) of at least 80 mg/kg. Also, in the data set with P-388 leukemia cells (BDF1 mice, P-388 i.p.), the response vs control in vivo at 40 mg/kg was found to be 136%. Besides, the response vs control in vivo at 80 mg/kg in the data set on P-388 leukemia cells (setting [2]) came out at 192%.

Turning to `COC1C(O)C(C)OC(OC2C(Oc3cccc4c(OC(=O)C5CCCCC5NC(=O)OCc5ccccc5)c5c(=O)oc6ccc(C)c7c(=O)oc(c34)c5c67)OC(C)C3OC(c4ccccc4)OC32)C1O` (stereo not drawn) [Compound No. 62], the LD50 in data set [1] (iv) is at least 40 mg/kg. In addition, in the data set on P-388 leukemia cells (BDF1 mice, P-388 i.p.), the response vs control in vivo at 20 mg/kg was 155% and the response vs control in vivo at 40 mg/kg was 210%.

For the compound `COC1C(O)C(C)OC(OC2C(Oc3cccc4c(OC(=O)CCNC(=O)c5ccccc5)c5c(=O)oc6ccc(C)c7c(=O)oc(c34)c5c67)OC(C)C3OC(c4ccc(Br)cc4)OC32)C1O` (stereo not drawn) [compound 123], in data set [1] (iv), the LD50 is at least 40 mg/kg. Moreover, the response vs control in vivo at 40 mg/kg in the data set with P-388 leukemia cells (BDF1 mice, P-388 i.p.) was 135%.

The compound `C=CCCC(=O)Oc1c2cccc(O[C@@H]3O[C@H](C)[C@@H]4OC(c5ccc(Cl)cc5Cl)O[C@@H]4[C@H]3O[C@H]3O[C@H](C)[C@H](O)[C@H](OC)[C@H]3O)c2c2oc(=O)c3c(C)ccc4oc(=O)c1c2c43` (stereo partly drawn) [compound 217] came in with an LD50 in data set [1] of at least 80 mg/kg. Also, the response vs control in vivo at 80 mg/kg in the data set with P-388 leukemia cells is 181%.

`COC1C(O)C(C)OC(OC2C(Oc3cccc4c(OC(=O)C(Cc5c[nH]c6ccccc56)NC(=O)OCc5ccccc5)c5c(=O)oc6ccc(C)c7c(=O)oc(c34)c5c67)OC(C)C3OC(c4cccc(C(F)(F)F)c4)OC32)C1O` (stereo not drawn) [compound 101]: the 50% lethal dose (LD50) in data set [1] (iv) was at least 80 mg/kg. Besides, the response vs control in vivo at 40 mg/kg with P-388 leukemia cells (BDF1 mice, P-388 i.p.) is 171%. Also, the response vs control in vivo at 80 mg/kg with P-388 leukemia cells (setting [2]) is 225%.

Consider `C=CCCC(=O)Oc1c2cccc(OC3OC(C)C4OC(C)(C)OC4C3OC3OC(C)C(O)C(OC)C3O)c2c2oc(=O)c3c(C)ccc4oc(=O)c1c2c43` (stereo not drawn) [Compound No. 175], for which the LD50 in data set [1] (iv) was at least 80 mg/kg. Moreover, the response vs control in vivo at 40 mg/kg with P-388 leukemia cells (BDF1 mice, P-388 i.p.) was determined as 145%. The response vs control in vivo at 80 mg/kg in the data set with P-388 leukemia cells (setting [2]) is 208%.

The compound `COC1C(O)C(C)OC(OC2C(Oc3cccc4c(OC(=O)COc5ccc(F)cc5)c5c(=O)oc6ccc(C)c7c(=O)oc(c34)c5c67)OC(C)C3OC(C)(C)OC32)C1O` (stereo not drawn) [compound 225] showed an LD50 in data set [1] (iv) of at least 60 mg/kg. In addition, in the data set on P-388 leukemia cells (BDF1 mice, P-388 i.p.), the response vs control in vivo at 60 mg/kg worked out at 148%.

In data set [1] (iv), `COC1C(O)C(C)OC(OC2C(Oc3cccc4c(OC(=O)CCC(=O)c5ccccc5)c5c(=O)oc6ccc(C)c7c(=O)oc(c34)c5c67)OC(C)C3OC(C)(C)OC32)C1O` (stereo not drawn) [compound 224, 6-O-(3-benzoylpropionyl)-3',4'-O-isopropylidene-chartreusin] came in with an LD50 of at least 60 mg/kg. The response vs control in vivo at 50 mg/kg in the data set with P-388 leukemia cells (dose d: 50 mg/kg × 3, i.v. on days 1, 5 and 9, BDF1 mice, P-388 i.p.) was 148%.

On to `COC1C(O)C(C)OC(OC2C(Oc3cccc4c(OC(=O)CCNC(=O)c5ccccc5)c5c(=O)oc6ccc(C)c7c(=O)oc(c34)c5c67)OC(C)C3OC(c4ccccc4)OC32)C1O` (stereo not drawn) [Compound No. 23], for which, in data set [1] (iv), the LD50 was at least 40 mg/kg. Besides, in the data set on P-388 leukemia cells (BDF1 mice, P-388 i.p.), the response vs control in vivo at 20 mg/kg was 205% and the response vs control in vivo at 40 mg/kg amounted to 233%.

`COC1C(O)C(C)OC(OC2C(Oc3cccc4c(OC(=O)CCNC(=O)c5ccccc5)c5c(=O)oc6ccc(C)c7c(=O)oc(c34)c5c67)OC(C)C3OC(C)(C)OC32)C1O` (stereo not drawn) [Compound No. 50]: the LD50 in data set [1] (iv) is at least 100 mg/kg. In the data set on P-388 leukemia cells (BDF1 mice, P-388 i.p.), the response vs control in vivo at 60 mg/kg came to 155%.
